Experimental data: ChEMBL document CHEMBL4619716, “Machine Learning in Mass Spectrometry: A MALDI-TOF MS Approach to Phenotypic Antibacterial Screening” (2020)
Calls of active or inactive are those of the source. The calls are words filed in the database; no cut-off is given here.

tested on: Escherichia coli; assay: Antimicrobial activity against Escherichia coli ATCC 25922 assessed as induction of changes in mass spectral profile of bacteria by measuring decrease in peak at m/z 6320 and increase in peak at m/z 6405 at 1/16 to 1 times MIC uM by MALDI-TOF MS analysis; type: functional, organism-based

Structure (SMILES)	Activity
CC1(C)S[C@@H]2[C@H](NC(=O)[C@H](N)c3ccc(O)cc3)C(=O)N2[C@H]1C(=O)O	Dose-dependent effect

tested on: Escherichia coli; assay: Antimicrobial activity against Escherichia coli ATCC 25922 assessed as induction of changes in mass spectral profile of bacteria 1 times MIC uM by MALDI-TOF MS analysis; type: functional, organism-based

Structure (SMILES)	Activity
CO/N=C(\C(=O)N[C@@H]1C(=O)N2C(C(=O)O)=C(COC(C)=O)CS[C@H]12)c1csc(N)n1	Active
CC1(C)S[C@@H]2[C@H](NC(=O)Cc3ccccc3)C(=O)N2[C@H]1C(=O)O	Active
CN[C@H](CC(C)C)C(=O)N[C@H]1C(=O)N[C@@H](CC(N)=O)C(=O)N[C@H]2C(=O)N[C@H]3C(=O)N[C@H](C(=O)N[C@H](C(=O)O)c4cc(O)cc(O)c4-c4cc3ccc4O)[C@H](O)c3ccc(c(Cl)c3)Oc3cc2cc(c3O[C@@H]2O[C@H](CO)[C@@H](O)[C@H](O)[C@H]2O[C@H]2C[C@](C)(N)[C@H](O)[C@H](C)O2)Oc2ccc(cc2Cl)[C@H]1O	Active
CO/N=C(\C(=O)N[C@@H]1C(=O)N2C(C(=O)O)=C(COC(N)=O)CS[C@H]12)c1ccco1	Active
CC1(C)S[C@@H]2[C@H](NC(=O)[C@H](N)c3ccc(O)cc3)C(=O)N2[C@H]1C(=O)O	Active
